Data published in paper PMC12195967, “Cobalt(II) Complexes of 4′–Nitro–Fenamic Acid: Characterization and Biological Evaluation” (Molecules, 2025).
Where two headings read alike, the source gives them in different places.

What was measured:
DPPH radical scavenging = conditions: compounds 0.1 mM, DPPH 0.1 mM in ethanol
Description: Antioxidant compounds able to neutralize DPPH radicals are increasingly recognized due to their capability of combating cancer, slowing down the aging process and regulating inflammation. As a result, they could potentially offer protection against rheumatoid arthritis and inflammation. […] In this experiment, NDGA and BHT were used as reference compounds and measurements took place at 30 min and 60 min. […] Such low scavenging activity of DPPH radicals is rather common for metal–NSAID complexes.
(§1) S1 Antioxidant activity assay
(§2) The antioxidant activity of the compound was evaluated via the ability to scavenge in vitro free radicals such as DPPH and ABTS and to reduce H2O2. All the experiments were carried out at least in triplicate and the standard deviation of absorbance was less than 10% […]
S1.1 Determination of the reducing activity of the radical DPPH
To an ethanolic solution of DPPH (0.1 mM) an equal volume solution of the compounds (0.1 mM) in ethanol was added. Absolute ethanol was also used as control solution. The absorbance at 517 nm was recorded at room temperature after 30 and 60 min in order to examine the possible existence of a potential time−dependence of the DPPH radical scavenging activity.[1] The DPPH−scavenging activity of the compounds was expressed as the percentage reduction of the absorbance values of the initial DPPH solution (DPPH%). NDGA and BHT were used as reference compounds. […]

CT DNA = conditions: cited from earlier work
[1] = Reduction of hydrogen peroxide; conditions: compounds 0.1 mM; phosphate buffer pH 7.4; 10 min
Description: Harmful hydroxyl radicals are released when hydrogen peroxide interacts with transition metal ions, leading to oxidative stress. Consequently, both oxidative stress and the production of reactive oxygen species could be reduced by ^•OH scavengers and H2O2 reducing agents.
as §1
The antioxidant activity of the compound was evaluated via the ability to scavenge in vitro free radicals such as DPPH and ABTS and to reduce H2O2. […]
S1.3 Reduction of hydrogen peroxide
The ability of the compounds to reduce hydrogen peroxide (H2O2) was estimated according to the method described in the literature. The reaction mixture contained 20 μL of each of the tested compounds (0.1 mM) and 5 μL H2O2 solution (40 mM) in phosphate […]
buffer (50 mM, pH 7.4). The absorbance was measured at 230 nm after 10 min. The antioxidant activity (reduction of H2O2) of the compounds was expressed as the percentage decrease of the initial H2O2 solution (H2O2%). […]

[2] = ABTS radical cation scavenging; conditions: compounds 0.1 mM; absorbance 734 nm after 1 min
Description: The ABTS-scavenging was measured through the discoloration of a dark green solution containing the cationic radical ABTS^•+, which was induced from the oxidation derived from hydrogen-donating antioxidants, either complexes or standards, and is often considered a marker of total oxidation capacity. […] Such an increase in activity upon coordination is expected for metal–NSAID complexes.
as §1, §2
S1.2 Assay of radical cation ABTS−scavenging activity
The ABTS assay was performed to determine the activity of the compounds to scavenge the radical cation ABTS. Initially, a water solution of ABTS was prepared (2 mM).
ABTS radical cation (ABTS+·) was produced by the reaction of ABTS stock solution with potassium persulfate (0.17 mM) and the mixture was stored in the dark at room temperature for 12−16 h before its use. The ABTS was oxidized incompletely because the stoichiometric reaction ratio of ABTS and potassium persulfate is 1:0.5. The absorbance became maximal and stable only after more than 6 h of reaction although the oxidation of the ABTS started immediately. The radical was stable in this form for more than 2 days when allowed to stand in the dark at room temperature. Afterwards, the ABTS+· solution was diluted in ethanol to an absorbance of 0.70 at 734 nm and 10 μL of diluted compounds or standards (0.1 mM) in DMSO were added. The absorbance was recorded out exactly 1 min after initial mixing.
The ABTS–radical scavenging activity of the compounds was expressed as the percentage inhibition of the absorbance of the initial ABTS solution (ABTS%). […]

[3] = commercially available fenamates

Cc1cc(C(C)(C)C)c(O)c(C(C)(C)C)c1 [BHT, butylated hydroxytoluene, reference compound]
%DPPH-scavenging ability (DPPH%), 30 min (DPPH radical scavenging): 70.83 ± 0.03%
%DPPH-scavenging ability (DPPH%), 60 min (DPPH radical scavenging): 83.39 ± 0.39%

CC[n+]1c(-c2ccccc2)c2cc(N)ccc2c2ccc(N)cc21 [EB, ethidium bromide]
DNA-binding constant Kb (CT DNA; classic DNA intercalator): 123000 M⁻¹

O=C1O[C@H]([C@@H](O)CO)C(O)=C1O [L-ascorbic acid, reference compound]
H2O2-reducing ability (H2O2%) [1]: 58.90 ± 0.52%

CC(Cc1ccc(O)c(O)c1)C(C)Cc1ccc(O)c(O)c1 (stereo not shown) [NDGA, nordihydroguaiaretic acid, reference compound]
%DPPH-scavenging ability (DPPH%), 30 min (DPPH radical scavenging): 94.33 ± 0.11%
%DPPH-scavenging ability (DPPH%), 60 min (DPPH radical scavenging): 90.47 ± 0.42%

Cc1c(C)c2c(c(C)c1O)CCC(C)(C(=O)O)O2 (stereo not shown) [Trolox, 6–hydroxy–2,5,7,8–tetramethylchroman–2–carboxylic acid, reference compound]
%ABTS radical scavenging activity (ABTS%) [2]: 96.50 ± 0.05%

O=C(O)c1ccccc1Nc1cccc(C(F)(F)F)c1 [flufenamic acid]
DNA-binding constant Kb (CT DNA; [3]): 270000 M⁻¹

Cc1cccc(Nc2ccccc2C(=O)O)c1C [mefenamic acid]
DNA-binding constant Kb (CT DNA; [3]): 105000 M⁻¹

Cc1c(Cl)cccc1Nc1ccccc1C(=O)O [tolfenamic acid]
DNA-binding constant Kb (CT DNA; [3]): 50000 M⁻¹
